In ChEMBL document CHEMBL5346943, “Discovery and Structural Optimization of Novel Quinolone Derivatives as Potent Irreversible Pan-Fibroblast Growth Factor Receptor Inhibitors for Treating Solid Tumors” (J Med Chem, 2023):

How the values were obtained:
Hep 3B2 = assay: Antiproliferative activity against human Hep3B cells incubated for 72 hrs by Cell counting kit 8 method; format: functional, cell-based
Huh-7 = assay: Antiproliferative activity against human Huh-7 cells incubated for 72 hrs by Cell counting kit 8 method; format: functional, cell-based; settings: Huh-7, 72 h
[1] = target: T1, Fibroblast growth factor receptor 4 (Homo sapiens, UniProt P22455); assay: Inhibition of FGFR4 (unknown origin) at 100 nM incubated for 10 mins followed by substrate addition measured after 60 mins by ADP-Glo luminescence assay relative to control; settings: time 70.0 min
Target sequence in this assay (P22455 22-802 limits assumed): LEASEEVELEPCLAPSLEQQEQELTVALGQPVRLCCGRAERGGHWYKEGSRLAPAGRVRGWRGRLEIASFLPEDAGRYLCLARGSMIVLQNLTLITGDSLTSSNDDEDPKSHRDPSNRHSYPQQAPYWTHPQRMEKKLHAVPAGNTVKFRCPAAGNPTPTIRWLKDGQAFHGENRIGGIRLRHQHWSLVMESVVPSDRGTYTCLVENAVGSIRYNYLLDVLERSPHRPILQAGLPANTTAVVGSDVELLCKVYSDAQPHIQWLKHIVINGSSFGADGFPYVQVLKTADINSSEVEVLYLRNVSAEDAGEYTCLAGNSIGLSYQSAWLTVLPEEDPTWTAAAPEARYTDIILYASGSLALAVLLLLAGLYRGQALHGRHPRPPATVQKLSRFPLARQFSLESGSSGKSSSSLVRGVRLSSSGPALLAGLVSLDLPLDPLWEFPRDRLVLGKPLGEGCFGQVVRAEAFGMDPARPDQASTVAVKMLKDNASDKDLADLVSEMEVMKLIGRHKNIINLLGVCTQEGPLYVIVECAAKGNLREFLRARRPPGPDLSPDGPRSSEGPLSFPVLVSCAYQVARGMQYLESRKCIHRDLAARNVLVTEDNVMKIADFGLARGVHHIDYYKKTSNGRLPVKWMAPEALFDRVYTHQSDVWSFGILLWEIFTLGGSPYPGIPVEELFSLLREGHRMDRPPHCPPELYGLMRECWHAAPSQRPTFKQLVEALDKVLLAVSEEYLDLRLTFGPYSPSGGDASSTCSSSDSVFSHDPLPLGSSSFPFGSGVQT

[2] = target: T1, Fibroblast growth factor receptor 4; assay: Inhibition of FGFR4 (unknown origin) incubated for 10 mins followed by substrate addition measured after 60 mins by ADP-Glo luminescence assay
Target sequence in this assay (P22455 whole entry): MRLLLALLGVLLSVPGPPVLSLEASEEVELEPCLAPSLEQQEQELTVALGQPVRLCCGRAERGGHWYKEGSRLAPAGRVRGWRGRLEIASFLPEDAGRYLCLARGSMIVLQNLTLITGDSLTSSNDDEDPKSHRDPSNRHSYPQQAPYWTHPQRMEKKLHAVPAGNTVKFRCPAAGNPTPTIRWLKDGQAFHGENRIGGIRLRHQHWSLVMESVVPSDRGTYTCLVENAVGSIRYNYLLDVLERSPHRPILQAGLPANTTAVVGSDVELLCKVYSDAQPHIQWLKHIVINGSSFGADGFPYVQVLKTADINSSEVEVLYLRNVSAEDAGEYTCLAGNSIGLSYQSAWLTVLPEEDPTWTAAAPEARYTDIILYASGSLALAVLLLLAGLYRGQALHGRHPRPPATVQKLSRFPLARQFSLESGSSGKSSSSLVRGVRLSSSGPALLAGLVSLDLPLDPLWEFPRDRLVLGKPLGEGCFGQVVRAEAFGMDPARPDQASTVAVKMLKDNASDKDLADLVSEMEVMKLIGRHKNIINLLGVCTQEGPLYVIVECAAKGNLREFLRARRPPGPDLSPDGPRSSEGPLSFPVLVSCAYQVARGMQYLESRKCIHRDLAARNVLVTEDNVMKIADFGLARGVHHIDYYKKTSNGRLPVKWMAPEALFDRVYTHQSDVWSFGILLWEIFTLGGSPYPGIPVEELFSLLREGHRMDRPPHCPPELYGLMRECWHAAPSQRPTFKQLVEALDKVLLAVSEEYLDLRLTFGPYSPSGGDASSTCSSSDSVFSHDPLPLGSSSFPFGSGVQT

IC50 (Huh-7) | inhibition [1] | IC50 [2] | Compound | IC50 (Hep 3B2)
1410 nM | 25.6% | – | COc1cc2nccc(Oc3ccc(NC(=O)NC4CC4)c(Cl)c3)c2cc1C1CCN(C(=O)C(F)(F)F)CC1 | > 10000 nM
2210 nM | 1.1% | – | C=CC(=O)N1CCC(c2cc3c(Oc4ccc(NC(=O)Cc5ccccc5)cc4F)ccnc3cc2OC)CC1 | 1350 nM
32.9 nM | 40.7% | – | C=CC(=O)N1CCC(c2cc3c(Oc4ccc5c(C(=O)NC)c(C)oc5c4)ccnc3cc2OC)CC1 | 41 nM
114 nM | 24% | – | C=CC(=O)N1CCC(c2cc3c(Oc4ccc5c(C(=O)NC)cccc5c4)ccnc3cc2OC)CC1 | 125 nM
103 nM | – | 12.4 nM | COc1cc2nccc(Oc3ccc(NC(=O)NC4CC4)c(Cl)c3)c2cc1C1CCN(C(=O)/C=C/C(F)(F)F)CC1 | > 10000 nM
> 10000 nM | 17.1% | – | C=CC(=O)N1CCC(c2cc3c(Nc4ccc(OCc5ccccn5)c(Cl)c4)ccnc3cc2OC)CC1 | 4020 nM
71.3 nM | – | 15 nM | C=CC(=O)N1CCC(c2cc3c(Oc4ccc(NC(=O)NC5CC5)c(Cl)c4)ncnc3cc2OC)CC1 | 72.6 nM
16.9 nM | – | 5.73 nM | C=CC(=O)N1CCC(c2cc3c(Oc4ccc(NC(=O)NC5CC5)c(Cl)c4)ccnc3cc2OC)C(C)C1 (centres undefined) | 13.3 nM
> 10000 nM | – | – | C=CC(=O)N1CCC(c2cc3c(Oc4ccc(/N=C5\CCCN5C)c(Cl)c4)ccnc3cc2OC)CC1 | > 10000 nM
15.5 nM | – | 14.5 nM | C=CC(=O)N1CCC(c2cc3c(Oc4ccc(NC(=O)NC5CC5)c(Cl)c4)ccnc3cc2OCC(F)(F)F)CC1 | 30.2 nM
384 nM | 36.5% | – | C=CC(=O)N1CCC(c2cc3c(Oc4ccc(NC(=O)Nc5cc(C)on5)c(Cl)c4)ccnc3cc2OC)CC1 | 664 nM
17.8 nM | – | 7.04 nM | [2H]C([2H])([2H])Oc1cc2nccc(Oc3ccc(NC(=O)NC4CC4)c(Cl)c3)c2cc1C1CCN(C(=O)C=C)CC1 | 72.6 nM
> 10000 nM | – | 294 nM | COc1cc2nccc(Oc3ccc(NC(=O)NC4CC4)c(Cl)c3)c2cc1C1=CCN(C(=O)CCl)CC1 | 1660 nM
1520 nM | – | 2.49 nM | C=CC(=O)N1CC=C(c2cc3c(Oc4ccc(NC(=O)NC5CC5)c(Cl)c4)ccnc3cc2OC)C1 | 438 nM
21.1 nM | – | 18 nM | C=CC(=O)N1CCC(c2cc3c(Oc4ccc(NC(=O)NC5CC5)c(F)c4)ccnc3cc2OC)CC1 | 30.2 nM
